# Measurements as given in ChEMBL document CHEMBL1275505, “Smqnr, a new chromosome-carried quinolone resistance gene in Stenotrophomonas maltophilia” (2008).
# How the values were obtained:
# Assay type in all cases: functional
# [1] = tested on: Escherichia coli; assay: Antimicrobial activity against Escherichia coli TOP10 by Etest
# [2] = tested on: Escherichia coli; assay: Antimicrobial activity against Escherichia coli TOP10 harboring pSmQnr1 carrying Smqnr gene by Etest
# [3] = tested on: Escherichia coli; assay: Antimicrobial activity against Escherichia coli TOP10 harboring pSmQnr3 carrying Smqnr gene by Etest
# [4] = tested on: Escherichia coli; assay: Antimicrobial activity against Escherichia coli TOP10 harboring pSmQnr9 carrying Smqnr gene by Etest
# [5] = tested on: Escherichia coli; assay: Antimicrobial activity against Escherichia coli TOP10 harboring pSmQnr8 carrying Smqnr gene by Etest
# [6] = tested on: Escherichia coli; assay: Antimicrobial activity against Escherichia coli TOP10 harboring pSmQnr4 carrying Smqnr gene by Etest
# [7] = tested on: Escherichia coli; assay: Antimicrobial activity against Escherichia coli TOP10 harboring pSmQnr11 carrying Smqnr gene by Etest
# [8] = tested on: Escherichia coli; assay: Antimicrobial activity against Escherichia coli TOP10 harboring pSmQnr7 carrying Smqnr gene by Etest
# [9] = tested on: Escherichia coli; assay: Antimicrobial activity against Escherichia coli TOP10 harboring pSmQnr6 carrying Smqnr gene by Etest
# [10] = tested on: Escherichia coli; assay: Antimicrobial activity against Escherichia coli TOP10 harboring pSmQnr10 carrying Smqnr gene by Etest
# [11] = tested on: Escherichia coli; assay: Antimicrobial activity against Escherichia coli TOP10 harboring pSmQnr5 carrying Smqnr gene by Etest
# [12] = tested on: Escherichia coli; assay: Antimicrobial activity against Escherichia coli TOP10 harboring pSmQnr2 carrying Smqnr gene by Etest
Structure (SMILES),MIC [1] [µg/mL],MIC [2] [µg/mL],MIC [3] [µg/mL],MIC [4] [µg/mL],MIC [5] [µg/mL],MIC [6] [µg/mL],MIC [7] [µg/mL],MIC [8] [µg/mL],MIC [9] [µg/mL],MIC [10] [µg/mL],MIC [11] [µg/mL],MIC [12] [µg/mL]
COc1c(N2CCNC(C)C2)c(F)cc2c(=O)c(C(=O)O)cn(C3CC3)c12 (stereo unspecified) [GATIFLOXACIN],< 0.002,0.008,0.003,0.002,0.002,0.002,0.003,0.023,0.064,0.003,,
C[C@H]1COc2c(N3CCN(C)CC3)c(F)cc3c(=O)c(C(=O)O)cn1c23.C[C@H]1COc2c(N3CCN(C)CC3)c(F)cc3c(=O)c(C(=O)O)cn1c23.O [LEVOFLOXACIN],0.004,0.023,0.006,,,0.006,,0.023,0.023,0.023,,
COc1c(N2C[C@@H]3CCCN[C@@H]3C2)c(F)cc2c(=O)c(C(=O)O)cn(C3CC3)c12 [MOXIFLOXACIN],< 0.002,0.012,0.002,,0.002,0.002,0.002,0.008,0.047,0.004,0.003,
CCn1cc(C(=O)O)c(=O)c2ccc(C)nc21 [NALIDIXIC ACID],1.5,3,1.5,1.5,2,1.5,2,2,2,2,2,2
CCn1cc(C(=O)O)c(=O)c2cc(F)c(N3CCNCC3)cc21 [NORFLOXACIN],0.032,0.064,0.032,0.032,0.047,0.032,0.032,0.047,0.064,0.032,0.032,0.047
C[C@@H]1CN(c2c(F)c(N)c3c(=O)c(C(=O)O)cn(C4CC4)c3c2F)C[C@H](C)N1 [SPARFLOXACIN],< 0.002,0.004,,,,,,0.008,0.125,0.002,,
